Measurements: paper PMC5838563, “Compounds producing an effective combinatorial regimen for disruption of HIV‐1 latency” (EMBO Molecular Medicine, 2017)

What was measured:
[1] = system: HIV‐1 LTR chromatin (Jurkat^Tat LTR‐DsRed clone #11); experiment: ChIP of histone H3K9 modifications at the HIV‐1 LTR; type: cell-based
Method: To characterize induction of HIV‐1 expression caused by PH02 in more detail, we employed chromatin immunoprecipitation (ChIP) assays to examine changes at the LTR promoter using Jurkat^Tat LTR‐DsRed clone #11.
Figure 6 Effect of PH02 on histone modification at HIV‐1 LTR and global histone modification • Chromatin immunoprecipitation assays were performed using Jurkat^Tat LTR‐DsRed, clone 11. The cells were treated for 24 h with PH02 and/or PEP005, and ChIP was performed using antibodies against histone H3K9‐me3 (left panel) and histone H3K9‐ac (right panel). The results are presented relative to ChIP with antihistone H3 antibodies. The results are determined from three biological replicates (n = 3). Statistical significance, as determined by ratio paired t‐test, is indicated as follows: ***P < 0.0005; ****P < 0.00005. The exact P‐values are indicated in Appendix Table S1. • Western blot analysis was performed using Jurkat^Tat LTR‐DsRed, clone 11, to detect the expression of SP1, NF‐κB p65, IκBα, total H3K9‐me3, and H3K9ac. The cells were treated for 24 h with PH02 and/or PEP005. Source data are available online for this figure.
Jurkat^Tat LTR‐DsRed cells, clone #11, were treated with 3 μM PH02 and/or 10 nM PEP005, for 24 h, and the cells cross‐linked with 1% formaldehyde for 10 min at RT. The cells were resuspended in cold NP‐40 lysis buffer (0.5% NP‐40, 10 mM Tris–HCl pH 7.8, 3 mM MgCl2) containing freshly added protease inhibitor cocktail (PIC, Sigma‐Aldrich) and spun to collect nuclei. The nuclei were sonicated in buffer containing 10 mM Tris–HCl (pH 7.8), 10 mM EDTA, and 0.5% SDS to obtain DNA fragments of 200–2,000 bp using a Bioruptor sonicator (Diagenode). The chromatin fractions were precleared with protein A/G agarose beads (Millipore) and immune‐precipitated with anti‐H3K9‐me3, anti‐H3K9‐ac, or anti‐H3 antibodies (Abcam) according to the manufacturer's instructions. Cross‐links were reversed by incubating the samples at 68°C for 2 h, and DNA was purified using QIAquick PCR columns and assayed by qPCR using primers specific to the HIV‐1 LTR core promoter, AGTGGCGAGCCCTCAGAT, and […]. Results are presented as normalized relative to that for histone H3 immunoprecipitates.

[2] = system: replication‐competent HIV‐1 provirus in CD4^+ T cells from HIV‐1‐infected patients; experiment: Quantitative viral outgrowth assay (qVOA); type: cell-based
Method: However, 1 nM PEP005 in combination with 1 μM PH02 produced a significant response that was double that produced by 1 μM PH02 on its own (Fig 10A). We confirmed this effect using a quantitative viral outgrowth assay (qVOA) with pools of CD4^+ T cells isolated from HIV‐1‐infected patient samples (Fig EV5, Appendix Table S5). […] We conclude that this combination of treatments may represent a promising candidate therapy to target persistent latent viral infection.
Figure EV5 Assay for reactivation of HIV‐1 from latently infected cells using a quantitative viral outgrowth assay Resting CD4^+ T cells from patient samples were serially diluted in 6‐ or 24‐well plates in duplicate (top) and treated as indicated (left). After 24 h, MOLT4/CCR5 cells were added to the wells, and the cultures incubated a further 14 days. HIV‐1 RNA was detected in filtered culture supernatants using RT–qPCR, and wells producing the specific PCR product are indicated in green. […]
For quantitative viral outgrowth assays (qVOA), serial dilutions of CD4^+ T lymphocytes from pooled HIV‐infected patients were plated in 6‐ or 24‐well plates (1 × 10^6 cells or < 1 × 10^6 cells, respectively). […] Viral RNA was isolated from the culture supernatants and analyzed as described above. […]

[3] = single treatment, 3 μM PH02 or 10 nM PEP005, 24 h

C/C=C(/C)C(=O)O[C@H]1C(C)=C[C@]23C(=O)[C@@H](C=C(CO)[C@@H](O)[C@]12O)[C@H]1[C@@H](C[C@H]3C)C1(C)C [PEP005, ingenol‐3‐angelate, reference compound]
H3K9 acetylation on the LTR [1, 3]: accumulation of H3K9 acetylation | H3K9‐3me at the LTR relative to total histone H3 [1, 3]: a similar effect was observed | reactivation of virus ([2]; 1 nM PEP005 alone, 24 h): did not produce reactivation of virus

CC(=O)Oc1ccccc1N(C=C1Sc2ccccc2C1=O)C(C)=O [PH02, 2‐{acetyl[(3‐oxo‐1‐benzothien‐2(3H)‐ylidene)methyl]amino}phenyl acetate]
H3K9 acetylation on the LTR ([1]; 3 μM PH02 + 10 nM PEP005, 24 h): significant elevation | H3K9‐3me at the LTR relative to total histone H3 ([1]; 3 μM PH02 + 10 nM PEP005, 24 h, versus either drug separately): equivalent reduction | H3K9 acetylation on the LTR [1, 3]: accumulation of H3K9 acetylation | H3K9‐3me at the LTR relative to total histone H3 [1, 3]: significantly reduced | virus replication ([2]; 1 μM PH02 + 1 nM PEP005, 24 h): produced significant virus replication
